Experimental data as given in US20220226265A1, “METHODS OF CONTROLLING MYOCARDIAL BLOOD FLOW” (UNIVERSITY OF LOUISVILLE RESEARCH FOUNDATION, INC., priority 2021, published 2022).

Test system: wild type and Kvβ-null mice
Test: Echocardiographic cardiac function during intravenous norepinephrine infusion
Assay type: in vivo, mouse
Conditions: for ejection fraction: after 1 min of 5 μg/kg·min−1 norepinephrine infusion
Source text: In vivo measurements of cardiac function and myocardial blood flow: Mice were anesthetized with 3% isoflurane and supplemental O2, administered (1 L·min^−1) in a small induction chamber. After induction, the mice were placed on a controlled heating table in a supine position. Anesthesia was maintained throughout the procedure by delivery of 1-2% isoflurane and supplemental O2 (0.5 L·min^−1). The extremities were secured to the surgical table by tape and a lubricated probe was inserted rectally to monitor body temperature. The chest, neck, and hind limb hair were then removed using a depilatory agent, the skin was rinsed with warm water, and the neck area was disinfected with 70% ethanol/betadine and an incision (10-15 mm) was made at the right side of the neck. For infusion of contrast agent and drugs, the jugular vein was isolated using blunt forceps and catheterized with sterilized PE-50 polyethylene tubing (pre-filled with heparinized saline; 50 U·ml^−1). The jugular vein catheter was then secured in place with two sutures. For continuous measurement of arterial blood pressure, a small incision was made on the hind limb and the femoral artery was isolated and cannulated with a 1.2 F pressure catheter (SciSense, Transonic Systems, Inc., Ithaca, N.Y., USA) connected to a PowerLab data acquisition system (ADInstruments, Colorado Springs, Colo., USA) through a SP200 pressure interface unit designed to measure arterial blood pressure and heart rate. After cannulation, the pressure catheter was advanced 10 mm into the abdominal aorta.
Ultrasound gel was centrifuged in a 60 mL syringe (1500×g, 10 min) to remove air bubbles, warmed to 37° C., and applied to the chest. Cardiac function was measured by M-mode transthoracic echocardiographic imaging of the parasternal short axis view, mid-papillary level using a Vevo 2100 high resolution echocardiography imaging system (FujiFilm VisualSonics, Toronto, ON, Canada). Contrast echocardiography was performed by using Siemens ultrasound imaging system (Sequoia Acuson C512; Siemens Medical Systems USA Inc., Mountain View, Calif.) with a high-frequency linear-array probe (15L8) held in place by a 3D railing system. For myocardial contrast echocardiography (MCE), we administered lipid-shelled microbubbles, which were freshly prepared by sonication of a decafluorobutane gas-saturated aqueous suspension of distearoylphosphatidylcholine (2 mg/mL) and polyoxyethylene-40-stearate (1 mg/mL). The contrast agent was intravenously infused via the jugular vein catheter at a rate of ˜5×10^5 microbubbles·min-1 (20 μl·min^−1) and MCE was performed by administering a multi-pulse contrast-specific pulse sequence to detect non-linear microbubble contrast signal at low mechanical index (MI=0.18-0.25). Data were acquired during and after a 1.9 MI pulse sequence to destruct microbubbles within the acoustic field, followed by imaging of replenished contrast signal.
Measurements of cardiac function, myocardial perfusion, and arterial blood pressure were performed at baseline, after administration of hexamethonium (5 mg·kg^−1, i.v.), and following successive doses of norepinephrine (0.5, 1.0, 2.5, and 5.0 μg·kg^−1·min^−1; 3 min duration each dose, followed by 3-5 min washout). […] All data analyses and calculations of cardiac workload (double product of mean arterial pressure and heart rate), cardiac function, myocardial blood flow, and mean arterial pressure were performed offline. For pressure measurements, we used Lab Chart 8 software (ADInstruments, Colorado Springs, Colo., USA). Left ventricular volume at end diastole (LVEDV) and end systole (LVESV), as well left ventricular internal diameter at end diastole (LVID,d) and end systole (LVID,s) were measured at steady state after drug infusions. […]

[1] = NE 0.5 μg/kg·min−1 i.v., Kvβ1.1−/− mice
[2] = NE 0.5 μg/kg·min−1 i.v., Kvβ2−/− mice
[3] = NE 0.5 μg/kg·min−1 i.v., SM22α-rtTA mice
[4] = NE 0.5 μg/kg·min−1 i.v., SM22α-rtTA:TRE-Kvβ1 mice
[5] = NE 0.5 μg/kg·min−1 i.v., Wild type (129SvEv) mice
[6] = NE 0.5 μg/kg·min−1 i.v., Wild type (C57B16N) mice
[7] = NE 1 μg/kg·min−1 i.v., Kvβ1.1−/− mice
[8] = NE 1 μg/kg·min−1 i.v., Kvβ2−/− mice
[9] = NE 1 μg/kg·min−1 i.v., SM22α-rtTA mice
[10] = NE 1 μg/kg·min−1 i.v., SM22α-rtTA:TRE-Kvβ1 mice
[11] = NE 1 μg/kg·min−1 i.v., Wild type (129SvEv) mice
[12] = NE 1 μg/kg·min−1 i.v., Wild type (C57B16N) mice
[13] = NE 2.5 μg/kg·min−1 i.v., Kvβ1.1−/− mice
[14] = NE 2.5 μg/kg·min−1 i.v., Kvβ2−/− mice
[15] = NE 2.5 μg/kg·min−1 i.v., SM22α-rtTA mice
[16] = NE 2.5 μg/kg·min−1 i.v., SM22α-rtTA:TRE-Kvβ1 mice
[17] = NE 2.5 μg/kg·min−1 i.v., Wild type (129SvEv) mice
[18] = NE 2.5 μg/kg·min−1 i.v., Wild type (C57B16N) mice
[19] = NE 5.0 μg/kg·min−1 i.v., Kvβ1.1−/− mice
[20] = NE 5.0 μg/kg·min−1 i.v., Kvβ2−/− mice
[21] = NE 5.0 μg/kg·min−1 i.v., SM22α-rtTA mice
[22] = NE 5.0 μg/kg·min−1 i.v., SM22α-rtTA:TRE-Kvβ1 mice
[23] = NE 5.0 μg/kg·min−1 i.v., Wild type (129SvEv) mice
[24] = NE 5.0 μg/kg·min−1 i.v., Wild type (C57B16N) mice

NC[C@H](O)c1ccc(O)c(O)c1 [norepinephrine]
EDV (left ventricular end diastolic volume) [1]: 53.5 ± 4.9 µL | EF (ejection fraction) [1]: 61.4 ± 4.2% | ESV (left ventricular end systolic volume) [1]: 21.3 ± 3.9 µL | FS (fractional shortening) [1]: 32.5 ± 2.8% | SV (stroke volume) [1]: 32.2 ± 1.8 µL | EDV (left ventricular end diastolic volume) [2]: 48.3 ± 2.7 µL | EF (ejection fraction) [2]: 71.9 ± 3.3% | ESV (left ventricular end systolic volume) [2]: 13.6 ± 1.6 µL | FS (fractional shortening) [2]: 40.7 ± 2.8% | SV (stroke volume) [2]: 34.7 ± 2.4 µL | EDV (left ventricular end diastolic volume) [3]: 43.6 ± 2.9 µL | EF (ejection fraction) [3]: 82.3 ± 3.3% | ESV (left ventricular end systolic volume) [3]: 8.1 ± 2.0 µL | FS (fractional shortening) [3]: 50.9 ± 3.6% | SV (stroke volume) [3]: 35.4 ± 1.6 µL | EDV (left ventricular end diastolic volume) [4]: 45.9 ± 3.8 µL | EF (ejection fraction) [4]: 62.7 ± 6.0% | ESV (left ventricular end systolic volume) [4]: 17.7 ± 3.6 µL | FS (fractional shortening) [4]: 33.9 ± 4.1% | SV (stroke volume) [4]: 28.2 ± 2.7 µL | EDV (left ventricular end diastolic volume) [5]: 50.5 ± 7.8 µL | EF (ejection fraction) [5]: 63.5 ± 2.5% | ESV (left ventricular end systolic volume) [5]: 19.4 ± 3.7 µL | FS (fractional shortening) [5]: 34.2 ± 1.9% | SV (stroke volume) [5]: 31.2 ± 4.2 µL | EDV (left ventricular end diastolic volume) [6]: 57.8 ± 2.3 µL | EF (ejection fraction) [6]: 71.64 ± 2.2% | ESV (left ventricular end systolic volume) [6]: 16.37 ± 1.4 µL | FS (fractional shortening) [6]: 40.48 ± 2.0% | SV (stroke volume) [6]: 41.46 ± 2.3 µL | EDV (left ventricular end diastolic volume) [7]: 47.6 ± 8.1 µL | EF (ejection fraction) [7]: 70.9 ± 3.1% | ESV (left ventricular end systolic volume) [7]: 14.1 ± 3.4 µL | FS (fractional shortening) [7]: 40.1 ± 2.4% | SV (stroke volume) [7]: 33.5 ± 5.2 µL | EDV (left ventricular end diastolic volume) [8]: 48.7 ± 4.6 µL | EF (ejection fraction) [8]: 73.1 ± 1.8% | ESV (left ventricular end systolic volume) [8]: 13.3 ± 1.8 µL | FS (fractional shortening) [8]: 41.4 ± 1.6% | SV (stroke volume) [8]: 42.7 ± 8.2 µL | EDV (left ventricular end diastolic volume) [9]: 49.4 ± 2.9 µL | EF (ejection fraction) [9]: 80.6 ± 4.2% | ESV (left ventricular end systolic volume) [9]: 10.0 ± 2.6 µL | FS (fractional shortening) [9]: 49.6 ± 4.3% | SV (stroke volume) [9]: 39.4 ± 1.8 µL | EDV (left ventricular end diastolic volume) [10]: 46.9 ± 4.9 µL | EF (ejection fraction) [10]: 74.2 ± 3.9% | ESV (left ventricular end systolic volume) [10]: 12.7 ± 3.2 µL | FS (fractional shortening) [10]: 42.7 ± 3.3% | SV (stroke volume) [10]: 34.2 ± 2.0 µL | EDV (left ventricular end diastolic volume) [11]: 46.7 ± 7.4 µL | EF (ejection fraction) [11]: 70.7 ± 5.3% | ESV (left ventricular end systolic volume) [11]: 14.7 ± 4.3 µL | FS (fractional shortening) [11]: 40.1 ± 4.6% | SV (stroke volume) [11]: 32.0 ± 3.7 µL | EDV (left ventricular end diastolic volume) [12]: 61.6 ± 3.2 µL | EF (ejection fraction) [12]: 72.40 ± 1.2% | ESV (left ventricular end systolic volume) [12]: 17.12 ± 1.3 µL | FS (fractional shortening) [12]: 40.97 ± 1.0% | SV (stroke volume) [12]: 44.52 ± 2.3 µL | EDV (left ventricular end diastolic volume) [13]: 41.5 ± 8.8 µL | EF (ejection fraction) [13]: 78.2 ± 2.0% | ESV (left ventricular end systolic volume) [13]: 9.4 ± 2.7 µL | FS (fractional shortening) [13]: 46.0 ± 1.8% | SV (stroke volume) [13]: 32.1 ± 6.1 µL | EDV (left ventricular end diastolic volume) [14]: 52.8 ± 3.5 µL | EF (ejection fraction) [14]: 70.1 ± 2.6% | ESV (left ventricular end systolic volume) [14]: 15.7 ± 1.6 µL | FS (fractional shortening) [14]: 39.0 ± 2.2% | SV (stroke volume) [14]: 37.1 ± 2.8 µL | EDV (left ventricular end diastolic volume) [15]: 51.5 ± 2.8 µL | EF (ejection fraction) [15]: 77.4 ± 5.1% | ESV (left ventricular end systolic volume) [15]: 12.2 ± 3.1 µL | FS (fractional shortening) [15]: 46.8 ± 4.8% | SV (stroke volume) [15]: 39.3 ± 2.1 µL | EDV (left ventricular end diastolic volume) [16]: 47.5 ± 5.5 µL | EF (ejection fraction) [16]: 74.2 ± 5.7% | ESV (left ventricular end systolic volume) [16]: 13.2 ± 4.3 µL | FS (fractional shortening) [16]: 43.1 ± 4.8% | SV (stroke volume) [16]: 34.3 ± 1.4 µL | EDV (left ventricular end diastolic volume) [17]: 48.8 ± 6.0 µL | EF (ejection fraction) [17]: 67.9 ± 2.7% | ESV (left ventricular end systolic volume) [17]: 16.0 ± 2.7 µL | FS (fractional shortening) [17]: 37.4 ± 2.1% | SV (stroke volume) [17]: 32.8 ± 3.6 µL | EDV (left ventricular end diastolic volume) [18]: 62.8 ± 3.7 µL | EF (ejection fraction) [18]: 72.88 ± 1.8% | ESV (left ventricular end systolic volume) [18]: 17.22 ± 1.7 µL | FS (fractional shortening) [18]: 41.47 ± 1.5% | SV (stroke volume) [18]: 45.63 ± 2.6 µL | EDV (left ventricular end diastolic volume) [19]: 45.7 ± 11.9 µL | EF (ejection fraction) [19]: 79.1 ± 2.7% | ESV (left ventricular end systolic volume) [19]: 10.4 ± 3.4 µL | FS (fractional shortening) [19]: 47.1 ± 2.4% | SV (stroke volume) [19]: 35.3 ± 8.5 µL | EDV (left ventricular end diastolic volume) [20]: 54.6 ± 4.5 µL | EF (ejection fraction) [20]: 67.5 ± 3.8% | ESV (left ventricular end systolic volume) [20]: 18.5 ± 3.1 µL | FS (fractional shortening) [20]: 37.3 ± 3.0% | SV (stroke volume) [20]: 36.1 ± 2.3 µL | EDV (left ventricular end diastolic volume) [21]: 56.9 ± 3.9 µL | EF (ejection fraction) [21]: 77.7 ± 5.8% | ESV (left ventricular end systolic volume) [21]: 13.4 ± 3.9 µL | FS (fractional shortening) [21]: 48.1 ± 6.0% | SV (stroke volume) [21]: 43.5 ± 3.1 µL | EDV (left ventricular end diastolic volume) [22]: 49.3 ± 5.7 µL | EF (ejection fraction) [22]: 69.9 ± 5.0% | ESV (left ventricular end systolic volume) [22]: 15.6 ± 3.9 µL | FS (fractional shortening) [22]: 39.3 ± 4.2% | SV (stroke volume) [22]: 33.7 ± 2.6 µL | EDV (left ventricular end diastolic volume) [23]: 56.4 ± 5.0 µL | EF (ejection fraction) [23]: 69.1 ± 2.4% | ESV (left ventricular end systolic volume) [23]: 17.3 ± 1.6 µL | FS (fractional shortening) [23]: 38.3 ± 1.9% | SV (stroke volume) [23]: 39.1 ± 4.1 µL | EDV (left ventricular end diastolic volume) [24]: 66.1 ± 4.4 µL | EF (ejection fraction) [24]: 73.65 ± 2.4% | ESV (left ventricular end systolic volume) [24]: 17.85 ± 2.3 µL | FS (fractional shortening) [24]: 42.39 ± 2.1% | SV (stroke volume) [24]: 48.26 ± 2.7 µL | ejection fraction (Kvβ2−/− mice): 71±1.7% | ejection fraction (WT animals): 84±2.2%
